{"source": "paper PMC12520456", "about": "“Regulating Enzyme Activity via Microaggregates Mediated by Phase Separation” (Advanced Science, 2025)", "key": {"IgG": {"test_system": "IgG", "assay": "Fluorescence anisotropy specificity test", "assay_type": "binding", "conditions": "fluorescently labeled DPMD; Figure S3I", "description": "(§1) To validate the design, DPMD was synthesized using solid‐phase synthesis employing HOBt/HBTU and Fmoc chemistry, following a sequence schematic diagram depicted in Figure 1A. Subsequently, a single reverse column purification by High‐performance liquid chromatography (HPLC) yielded DPMD with purity exceeding 95% at a yield surpassing 60% (Figure S1B, Supporting Information). Circular dichroism (CD) spectra were recorded for a 40 µM DPMD sample in an aqueous solution containing 20% TFE at room temperature. The use of 20% TFE was necessary to obtain a clear spectrum, as it enhances peptide solubility and stabilizes secondary structure.^[ [9] ^] […] To further confirm that DPMD's enzymatic targeting is specific and not a broad‐spectrum protein aggregation effect, we tested DPMD against other pancreatic enzymes and abundant plasma proteins. Fluorescently labeled DPMD was mixed with elastase, pancreatic lipase, α‐amylase, carboxypeptidase A, bovine serum albumin (BSA), and IgG, respectively, and fluorescence anisotropy was measured to detect binding. […] For example, anisotropy values for DPMD + elastase (or lipase, amylase, etc.) remained near the baseline (DPMD‐alone) level, whereas DPMD + trypsin produced a pronounced anisotropy elevation (reflecting peptide‐enzyme complex formation and microaggregate assembly).\n(§2) Figure S3. […]\n(§3) (D-H) The fluorescent anisotropy\n(§4) evaluation of binding affinity between DPMD peptide with elastase (D), lipase (E), amylase(F), carboxypeptidase\n(§5) (G), albumin (H) and immunoglobulins (I). […]"}, "[1]": {"target": "T1, bovine serum albumin (BSA) (Bos taurus, UniProt P02769)", "T1 construct": "purchased Psaitong Biotechnology", "T1 sequence (P02769 25-607)": "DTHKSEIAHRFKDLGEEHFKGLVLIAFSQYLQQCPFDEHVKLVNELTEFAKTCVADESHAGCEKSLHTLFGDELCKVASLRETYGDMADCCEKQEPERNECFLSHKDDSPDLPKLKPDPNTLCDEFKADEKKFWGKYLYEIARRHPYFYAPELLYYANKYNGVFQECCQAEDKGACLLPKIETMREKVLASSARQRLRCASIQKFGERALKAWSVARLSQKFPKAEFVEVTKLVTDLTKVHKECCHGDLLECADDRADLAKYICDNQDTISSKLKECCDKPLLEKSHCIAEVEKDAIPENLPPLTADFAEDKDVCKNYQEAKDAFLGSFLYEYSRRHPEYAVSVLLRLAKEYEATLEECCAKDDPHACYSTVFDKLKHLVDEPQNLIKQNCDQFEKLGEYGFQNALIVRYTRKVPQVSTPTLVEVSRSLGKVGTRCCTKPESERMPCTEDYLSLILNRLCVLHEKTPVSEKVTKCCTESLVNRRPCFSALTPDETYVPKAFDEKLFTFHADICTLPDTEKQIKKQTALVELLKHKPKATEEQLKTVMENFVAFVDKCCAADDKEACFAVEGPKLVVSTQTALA", "assay": "Fluorescence anisotropy specificity test", "assay_type": "binding", "conditions": "fluorescently labeled DPMD; Figure S3H", "description": "as §1, §2, §3, §4, §5"}, "carboxypeptidase A": {"test_system": "carboxypeptidase A", "assay": "Fluorescence anisotropy specificity test", "assay_type": "binding", "conditions": "fluorescently labeled DPMD; Figure S3G", "description": "as §1, §2, §3, §4, §5"}, "elastase": {"target": "T2, elastase (Sus scrofa, UniProt P00772)", "T2 construct": "purchased Sangon", "T2 sequence (P00772 27-266)": "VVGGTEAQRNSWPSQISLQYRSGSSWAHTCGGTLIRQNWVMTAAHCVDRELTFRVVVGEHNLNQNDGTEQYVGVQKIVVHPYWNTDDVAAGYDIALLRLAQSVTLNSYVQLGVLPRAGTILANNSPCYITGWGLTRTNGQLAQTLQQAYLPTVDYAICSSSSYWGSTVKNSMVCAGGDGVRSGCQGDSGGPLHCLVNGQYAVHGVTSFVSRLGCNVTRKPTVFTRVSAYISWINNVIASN", "assay": "Fluorescence anisotropy specificity test", "assay_type": "binding", "conditions": "fluorescently labeled DPMD; Figure S3D", "description": "as §1, §2, §3, §4, §5"}, "pancreatic lipase": {"target": "T3, pancreatic lipase (Sus scrofa, UniProt P00591)", "T3 construct": "purchased Macklin", "T3 sequence (P00591 1-450)": "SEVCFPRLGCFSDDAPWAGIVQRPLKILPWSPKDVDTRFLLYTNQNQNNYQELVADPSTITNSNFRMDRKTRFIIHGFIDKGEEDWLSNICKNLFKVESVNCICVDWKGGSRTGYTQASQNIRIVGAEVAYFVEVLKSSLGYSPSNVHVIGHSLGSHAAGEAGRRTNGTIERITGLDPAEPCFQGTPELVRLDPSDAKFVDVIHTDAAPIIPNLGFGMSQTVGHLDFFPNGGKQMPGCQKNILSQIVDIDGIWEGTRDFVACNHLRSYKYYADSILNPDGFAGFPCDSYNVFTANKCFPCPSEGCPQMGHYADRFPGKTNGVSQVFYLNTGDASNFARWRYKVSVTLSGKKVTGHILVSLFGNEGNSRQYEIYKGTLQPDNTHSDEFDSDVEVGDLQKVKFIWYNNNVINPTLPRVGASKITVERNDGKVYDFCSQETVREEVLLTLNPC", "assay": "Fluorescence anisotropy specificity test", "assay_type": "binding", "conditions": "fluorescently labeled DPMD; Figure S3E", "description": "as §1, §2, §3, §4, §5"}, "α-amylase": {"test_system": "α-amylase", "assay": "Fluorescence anisotropy specificity test", "assay_type": "binding", "conditions": "fluorescently labeled DPMD; Figure S3F", "description": "as §1, §2, §3, §4, §5"}, "[2]": {"test_system": "trypsin and chymotrypsin in ascitic fluid", "assay": "Ex vivo ascitic fluid from lethal POPF model: aggregates, FRAP, enzyme activity", "assay_type": "biochemical, rat", "description": "This ex vivo evidence confirms that DPMD mitigates POPF via an LSPS‐based mechanism: by assembling leaking pancreatic enzymes into non‐fusing microaggregates, DPMD effectively isolates and inactivates the enzymes, thereby preventing proteolytic damage to surrounding tissues.\nFigure S13. (A) The evaluation of fluorescence polarization of DPMD with different volumes ascites. ( B) Representative time -lapse FRAP images howling the pre -bleach and recovery signals of DPMD -treated asciteschymotrypsin ex vitro. Circles indicate the bleached area. Scale bars, 10 μm and 1 μm (zoomed -in image). (C) Time-lapse images of DPMD-ascites mixture aggregates, illustrating the non-fusion of two aggregates. (D) The inhibition evaluation of enzymes in ascites bioactivity for trypsin and chymotrypsin by DPMD.\n(1 picture or pasted object on this page, not shown here)"}}, "note": "Non-standard residues stand in square brackets, D forms with d. Residues, ends and D or L forms follow the SMILES beside them.", "data": [{"smiles": "CC[C@@H](C)[C@@H](NC(=O)[C@@H](CCC(N)=O)NC(=O)[C@H](NC(=O)[C@@H](Cc1ccc(O)cc1)NC(=O)CNC(=O)[C@@H](CC(C)C)NC(=O)[C@H](NC(=O)[C@@H](CO)NC(=O)CNC(=O)[C@@H](C)NC(=O)[C@@H](CC(=O)O)NC(=O)[C@@H](C)NC(=O)[C@@H](CCCNC(=N)N)NC(=O)[C@@H](C)NC(=O)[C@@H](CC(=O)O)NC(=O)[C@@H](C)NC(=O)[C@@H](CCCNC(=N)N)NC(=O)[C@@H](C)NC(=O)[C@@H](CC(=O)O)NC(=O)[C@@H](C)NC(=O)[C@@H](CCCNC(=N)N)NC(=O)[C@@H](C)NC(=O)[C@@H](CC(=O)O)NC(=O)[C@@H](C)NC(=O)[C@H](N)CCCNC(=N)N)C(C)C)[C@H](C)CC)C(=O)N[C@H](CCCNC(=N)N)C(=O)O", "note": "[DPMD, Ac‐(D‐RADA)4‐CONH2] (H-[dR][dA][dD][dA][dR][dA][dD][dA][dR][dA][dD][dA][dR][dA][dD][dA]G[dS][dV][dL]G[dY][dI][dQ][dI][dR]-OH; N-terminus and C-terminus assumed)", "values": [{"measurement": "anisotropy increase with IgG", "setting": "IgG", "result": "no significant anisotropy increase"}, {"measurement": "anisotropy increase with BSA", "setting": "[1]", "result": "no significant anisotropy increase"}, {"measurement": "anisotropy increase with carboxypeptidase A", "setting": "carboxypeptidase A", "result": "no significant anisotropy increase"}, {"measurement": "anisotropy increase with elastase", "setting": "elastase", "result": "no significant anisotropy increase"}, {"measurement": "anisotropy increase with pancreatic lipase", "setting": "pancreatic lipase", "result": "no significant anisotropy increase"}, {"measurement": "anisotropy increase with α-amylase", "setting": "α-amylase", "result": "no significant anisotropy increase"}, {"measurement": "fluorescence recovery after photobleaching of microaggregates in ascitic fluid", "setting": "[2]; Figure S13B", "result": "minimal fluorescence recovery after photobleaching"}, {"measurement": "proteolytic activity of trypsin and chymotrypsin in ascitic fluid", "setting": "[2]; Figure S13D", "result": "markedly suppressed"}]}]}
